These results are taken from patent publication US10766864B2, “Morphinan derivatives for the treatment of neuropathic pain” (Nektar Therapeutics, priority 2015, dated 2020).

Like-named read-outs stand apart in the source and are kept apart here.

One assay deals with NMDA receptor. The assay is described as follows: Competitive radioligand binding at NMDA receptor ([3H] MK801), rat forebrain membranes. The note with it: 0.2 nM [3H] MK801, reflects free base activity. As for the experimental part: (§1) Receptor Binding at MOR and NMDA.
(§2) Affinities of various compounds were measured in vitro using competitive radioligand binding assays. Serial dilutions of test compounds were incubated with membranes prepared from CHO-K1 cells expressing the mu opioid receptor (MOR; for opioid receptor binding) or rat forebrain membranes (for NMDA receptor binding). 2 nM [^3H] Naloxone (MOR) or 0.2 nM [^3H] MK801 (NMDA) were used as the specific, competitive radioligands. 10 uM Naloxone (MOR), or 10 uM MK801 (NMDA) was used to determine non-specific binding. Bound radioactivity was measured using a scintillation counter & IC50 values for test compounds were determined by non-linear regression analysis using a one-site competition model (Graph Pad Prizm). Due to each test compound being solubilized in a buffered system for the assay, the results presented herein reflect the free base activity.

The next assay deals with mu opioid receptor (MOR) (Homo sapiens (Human), UniProt P35372). In words: Competitive radioligand binding at MOR ([3H] Naloxone). As for the experimental part: as §1, §2
Setting [1] is: membranes from CHO-K1 cells expressing MOR, 2 nM [3H] Naloxone, reflects free base activity, read-out: MOR IC50.

With `CN1CC[C@]23CCCC[C@H]2[C@H]1Cc1ccc(N(c2ccccn2)c2ccccn2)cc13` [Compound 57, 17-methyl-N,N-di(pyridin-2-yl)morphinan-3-amine], the IC50 (as a rule, the midpoint of a concentration-inhibition curve) was 1000 to 10000 nM at NMDA receptor and > 1000 nM at mu opioid receptor (MOR) (setting [1]).

As to `COCCOCCOCCO[C@H]1CC[C@H]2[C@H]3Cc4ccc(OC)cc4[C@@]2(CCN3C)C1` [Compound 1, (6α)-3-methoxy-6-{2-[2-(2-methoxyethoxy)ethoxy]ethoxy}-17-methylmorphinan], the IC50 on NMDA receptor is > 10000 nM; on mu opioid receptor (MOR) (setting [1]) it was > 1000 nM.

On to `COCCOCCOCCN1CC[C@]23CC(=O)CC[C@H]2[C@H]1Cc1ccc(O)cc13` [Compound 6, 3-hydroxy-17-{2-[2-(2-methoxyethoxy)ethoxy]ethyl}morphinan-6-one], for which the values for the IC50 on NMDA receptor and at mu opioid receptor (MOR) were > 10000 nM and 100 to 1000 nM, respectively.

`COCCOCCOCCOCCOCCO[C@H]1CC[C@H]2[C@H]3Cc4ccc(O)cc4[C@@]2(CCN3C)C1` [Compound 10, (6α)-17-methyl-6-(2,5,8,11,14-pentaoxahexadecan-16-yloxy)morphinan-3-ol]: the values for the half-inhibitory concentration (IC50) on NMDA receptor and at mu opioid receptor (MOR) (setting [1]) were > 10000 nM and 100 to 1000 nM, respectively.

`COCCOCCOCCOCCOCCCC(=O)Nc1nc2cc3c(cc2s1)C[C@@H]1[C@@H]2CCCC[C@]32CCN1C` [Compound 80, N-[(4aR,5R,11bR)-14-methyl-2,3,4,4a,5,6-hexahydro-1H-5,11b-(epiminoethano)phenanthro[3,2-d][1,3]thiazol-9-yl]-2,5,8,11,14-pentaoxaoctadecan-18-amide]: the IC50 on NMDA receptor was 1000 to 10000 nM; on mu opioid receptor (MOR) (setting [1]), > 1000 nM.

As to `CN1CC[C@]23CCCC[C@H]2[C@H]1Cc1ccc(-n2ccnc2)cc13` [Compound 62, 3-(1H-imidazol-1-yl)-17-methylmorphinan], the half-maximal inhibitory concentration (IC50) on NMDA receptor was 100 to 1000 nM; at mu opioid receptor (MOR), 10 to 100 nM.

As to `CN1CC[C@]23CCCC[C@H]2[C@H]1Cc1ccc(Nc2ncccn2)cc13` [Compound 32, 17-methyl-N-(pyrimidin-2-yl)morphinan-3-amine], the figures for the IC50 at NMDA receptor and on mu opioid receptor (MOR) (setting [1]) were 100 to 1000 nM and > 1000 nM, respectively.

As for `COCCOCCOc1cccc(Nc2ccc3c(c2)[C@@]24CCCC[C@H]2[C@@H](C3)N(C)CC4)c1` [Compound 34, N-{3-[2-(2-methoxyethoxy)ethoxy]phenyl}-17-methylmorphinan-3-amine], the IC50 at NMDA receptor was > 10000 nM; at mu opioid receptor (MOR) (setting [1]) it was 0.1 to 10 nM.

On to `CCNC(=O)N1CC[C@]23CCCC[C@H]2[C@H]1Cc1ccc(OC)cc13` [Compound 17, N-ethyl-3-methoxymorphinan-17-carboxamide], for which the values for the IC50 at NMDA receptor and on mu opioid receptor (MOR) (setting [1]) were > 10000 nM and > 1000 nM, respectively.

As to `COCCOCCOCCN1CC[C@]23CC(=O)CC[C@H]2[C@H]1Cc1ccc(OC)cc13` [Compound 4, 3-methoxy-17-{2-[2-(2-methoxyethoxy)ethoxy]ethyl}morphinan-6-one], the IC50 on NMDA receptor is > 10000 nM; on mu opioid receptor (MOR) (setting [1]) it was > 1000 nM.

As for `Oc1ccc2c(c1)[C@@]13CCCC[C@H]1[C@@H](C2)N(CC1COC1)CC3` [Compound 88, 17-(oxetan-3-ylmethyl)morphinan-3-ol], the IC50 is 1000 to 10000 nM on NMDA receptor and 10 to 100 nM at mu opioid receptor (MOR).

With `COc1ccc(NC(=O)c2ccc3c(c2)[C@@]24CCCC[C@H]2[C@@H](C3)N(C)CC4)cc1` [Compound 38, N-(4-methoxyphenyl)-17-methylmorphinan-3-carboxamide], the IC50 at NMDA receptor is > 10000 nM; at mu opioid receptor (MOR), 100 to 1000 nM.

`COCCOc1cc2c(cc1O)[C@@]13CCCCC1[C@@H](C2)N(C)CC3` (stereo partly shown) [Compound 73, 2-(2-methoxyethoxy)-17-methylmorphinan-3-ol]: the results for the concentration for half-maximal inhibition (IC50) on NMDA receptor and at mu opioid receptor (MOR) were 1000 to 10000 nM and 100 to 1000 nM, respectively.

As for `CN1CC[C@]23CCCC[C@H]2[C@H]1Cc1cc2nc[nH]c2cc13` [Compound 81, (4aR,5R,11bR)-14-methyl-1,2,3,4,4a,5,6,10-octahydro-5,11b-(epiminoethano)phenanthro[2,3-d]imidazole], the results for the IC50 at NMDA receptor and at mu opioid receptor (MOR) were > 10000 nM and 10 to 100 nM, respectively.

In the case of `COCCO[C@@H]1CC[C@H]2[C@H]3Cc4ccc(O)cc4[C@@]2(CCN3C)C1` [Compound 31, (6β)-6-(2-methoxyethoxy)-17-methylmorphinan-3-ol], the IC50 on NMDA receptor was 1000 to 10000 nM; at mu opioid receptor (MOR) it was 0.1 to 10 nM.

As to `COCCOCCOCCN1CC[C@]23CCCC[C@H]2[C@H]1Cc1ccc(OC)cc13` [Compound 13, 3-methoxy-17-{2-[2-(2-methoxyethoxy)ethoxy]ethyl}-morphinan], the IC50 at NMDA receptor was > 10000 nM; on mu opioid receptor (MOR) (setting [1]), > 1000 nM.

With `CN1CC[C@]23CCCC[C@H]2[C@H]1Cc1cc(C#N)c(N)cc13` [Compound 103, 3-amino-17-methylmorphinan-2-carbonitrile], the values for the IC50 at NMDA receptor and at mu opioid receptor (MOR) (setting [1]) were > 10000 nM and > 1000 nM, respectively.

Take `CN1CC[C@]23CCCC[C@H]2[C@H]1Cc1ccc(NS(C)(=O)=O)cc13` [Compound 37, N-(17-methylmorphinan-3-yl)methanesulfonamide]: the IC50 on NMDA receptor was 1000 to 10000 nM; on mu opioid receptor (MOR) it was 100 to 1000 nM.

Turning to `COCCNc1cc2c(cc1[N+](=O)[O-])C[C@@H]1[C@@H]3CCCC[C@]23CCN1C` [Compound 76, N-(2-methoxyethyl)-17-methyl-2-nitromorphinan-3-amine], the IC50 on NMDA receptor is > 10000 nM; on mu opioid receptor (MOR) (setting [1]), > 1000 nM.

With `COCCOCCN1CC[C@]23CC(=O)CC[C@H]2[C@H]1Cc1ccc(OC)cc13` [Compound 5, 3-methoxy-17-[2-(2-methoxyethoxy)ethyl]morphinan-6-one], the IC50 on NMDA receptor was > 10000 nM; at mu opioid receptor (MOR), 100 to 1000 nM.

As for `CN1CC[C@]23CCCC[C@H]2[C@H]1Cc1ccc(-c2ccncc2)cc13` [Compound 45, 17-methyl-3-(pyridin-4-yl)morphinan], the IC50 at NMDA receptor was 1000 to 10000 nM; on mu opioid receptor (MOR) (setting [1]) it was > 1000 nM.

On to `CN1CC[C@]23CCCC[C@H]2[C@H]1Cc1ccc(Nc2ccncc2)cc13` [Compound 49, 17-methyl-N-(pyridin-4-yl)morphinan-3-amine], for which the results for the IC50 at NMDA receptor and at mu opioid receptor (MOR) were 0.1 to 100 nM and 100 to 1000 nM, respectively.

For the compound `COCCOCCOCCNc1nc2cc3c(cc2s1)C[C@@H]1[C@@H]2CCCC[C@]32CCN1C` [Compound 71, (4aR,5R,11bR)—N-(2-(2-(2-methoxyethoxy)ethoxy)ethyl)-14-methyl-2,3,4,4a,5,6-hexahydro-1H-5,11b-(epiminoethano)phenanthro[3,2-d]thiazol-9-amine], the IC50 at NMDA receptor was in the range of 1000 to 10000 nM; on mu opioid receptor (MOR) (setting [1]), 100 to 1000 nM.

For `COc1ccc(Nc2ccc3c(c2)[C@@]24CCCC[C@H]2[C@@H](C3)N(C)CC4)cc1` [Compound 28, N-(4-methoxyphenyl)-17-methylmorphinan-3-amine], the IC50 lay within 1000 to 10000 nM on NMDA receptor and 0.1 to 10 nM on mu opioid receptor (MOR).

`CN1CC[C@]23Cc4nc(N)sc4C[C@H]2[C@H]1Cc1ccc(O)cc13` [Compound 90, (6R,6aR,11aS)-9-amino-14-methyl-6,6a,7,11-tetrahydro-5H-6,11a-(epiminoethano)phenanthro[3,2-d]thiazol-2-ol]: the IC50 on NMDA receptor was > 10000 nM; at mu opioid receptor (MOR), 10 to 100 nM.

With `COCCOCCOCCOCCOCCOc1ccc2c(c1)[C@]13CCN(C)[C@H](C2)[C@@H]1CCC(=O)C3` [Compound 8, 17-methyl-3-(2,5,8,11,14-pentaoxahexadecan-16-yloxy)morphinan-6-one], the IC50 at NMDA receptor was > 10000 nM; at mu opioid receptor (MOR) (setting [1]), > 1000 nM.

As to `COCCOCCn1cc(-c2ccc3c(c2)C24CCCCC2C(C3)N(C)CC4)cn1` (stereo not shown) [Compound 65, 3-{1-[2-(2-methoxyethoxy)ethyl]-1H-pyrazol-4-yl}-17-methylmorphinan], the IC50 at NMDA receptor was > 10000 nM; on mu opioid receptor (MOR) (setting [1]) it was > 1000 nM.

As to `CN1CC[C@]23CCCC[C@H]2[C@H]1Cc1ccc(Nc2ccccn2)cc13` [Compound 63, 17-methyl-N-(pyridin-2-yl)morphinan-3-amine], the IC50 on NMDA receptor and on mu opioid receptor (MOR) was 100 to 1000 nM each time.

As to `CN1CC[C@]23CCCC[C@H]2[C@H]1Cc1cc2ccc(N)nc2cc13` [Compound 101, (4aR,5R,12bR)-15-methyl-2,3,4,4a,5,6-hexahydro-1H-5,12b-(epiminoethano)naphtho[2,1-g]quinolin-10-amine], the values for the IC50 at NMDA receptor and at mu opioid receptor (MOR) (setting [1]) were 1000 to 10000 nM and 10 to 100 nM, respectively.

Consider `COCCOCCOc1cnccc1Nc1ccc2c(c1)[C@@]13CCCC[C@H]1[C@@H](C2)N(C)CC3` [Compound 66, (4bR,8aR,9R)—N-(3-(2-(2-methoxyethoxy)ethoxy)pyridin-4-yl)-11-methyl-6,7,8,8a,9,10-hexahydro-5H-9,4b-(epiminoethano)phenanthren-3-amine], for which the 50% inhibitory concentration (IC50) on NMDA receptor is 1000 to 10000 nM; at mu opioid receptor (MOR) (setting [1]), 100 to 1000 nM.

Consider `CN1CC[C@]23CCCC[C@H]2[C@H]1Cc1cc2nc(N)[nH]c2cc13` [Compound 82, (4aR,5R,11bR)-14-methyl-1,2,3,4,4a,5,6,10-octahydro-5,11b-(epiminoethano)phenanthro[2,3-d]imidazol-9-amine], for which the IC50 at NMDA receptor was > 10000 nM; at mu opioid receptor (MOR) (setting [1]) it was 100 to 1000 nM.

Consider `COCCOc1c(OC)ccc2c1[C@@]13CCCC[C@H]1[C@@H](C2)N(C)CC3` [Compound 21, 3-methoxy-4-(2-methoxyethoxy)-17-methylmorphinan], for which the IC50 on mu opioid receptor (MOR) is 100 to 1000 nM.

As for `COCCOCCOCCOCCOCCOCCNc1nc2cc3c(cc2s1)C[C@@H]1[C@@H]2CCCC[C@]32CCN1C` [Compound 70, (4aR,5R,11bR)-14-methyl-N-(2,5,8,11,14,17-hexaoxanonadecan-19-yl)-2,3,4,4a,5,6-hexahydro-1H-5,11b-(epiminoethano)phenanthro[3,2-d][1,3]thiazol-9-amine], on NMDA receptor, the IC50 is > 10000 nM.
